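Following 48 hours of exposure in 96-well plates, responses at five concentrations were used to interpolate endpoints linearly. GI50 is the concentration that inhibits growth by half.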 Calls of active or inactive are those of the source. Rule as the data show it: active = GI50 up to about 1.1 µM and inactive = higher.
Tests used:
Assay in all cases: NCI anticancer screen, dose series, 48 h
HOP-18 = system: HOP-18
KM-20L2 = system: KM-20L2
DLD-1 = system: DLD-1
LXFL 529 = system: LXFL 529
SNB-78 = system: SNB-78
XF498 = system: XF498
RXF 631 = system: RXF 631
DMS-114 = system: DMS-114
M19-MEL = system: M19-MEL

SMILES	GI50 (HOP-18)	GI50 (KM-20L2)	GI50 (DLD-1)	GI50 (LXFL 529)	GI50 (SNB-78)	GI50 (XF498)	GI50 (RXF 631)	GI50 (DMS-114)	GI50 (M19-MEL)
O=C(NCCS(=O)(=O)N1C(=O)C2CCCN2C(=O)[C@@H]1Cc1ccccc1)OCc1ccccc1 (stereo partly drawn)	> 100 µM (inactive)	45.8 µM (inactive)	> 100 µM (inactive)	34 µM (inactive)	61.9 µM (inactive)	0.838 µM (active)	45.6 µM (inactive)	22.4 µM (inactive)	–
CCc1cccc(CC)c1NC(=O)CC1SC(N)=NC1=O (stereo not drawn)	> 100 µM (inactive)	–	–	> 100 µM (inactive)	> 100 µM (inactive)	> 100 µM (inactive)	> 100 µM (inactive)	> 100 µM (inactive)	> 100 µM (inactive)
O=C(NCCCN1CCN(CCCNC(=O)c2cccc3ccccc23)CC1)c1cccc2ccccc12	> 100 µM (inactive)	34 µM (inactive)	–	89.7 µM (inactive)	41.3 µM (inactive)	21.9 µM (inactive)	75.7 µM (inactive)	59.8 µM (inactive)	> 100 µM (inactive)
C[C@H]1CCC2C(CN3CCCCC3)C(=O)OC2[C@]2(C)C(=O)CC(N3CCCCC3)C12O (stereo partly drawn)	29 µM (inactive)	7.91 µM (inactive)	3.34 µM (inactive)	–	4.41 µM (inactive)	–	1.28 µM (inactive)	3.2 µM (inactive)	5.3 µM (inactive)
CCN1CCC(O)(c2ccc(OC)cc2)C(C(=O)c2ccc(OC)cc2)C1 (stereo not drawn)	–	18.6 µM (inactive)	16.9 µM (inactive)	20 µM (inactive)	26.1 µM (inactive)	17.6 µM (inactive)	21.5 µM (inactive)	18.7 µM (inactive)	18.3 µM (inactive)
N#CCc1nnc(N)o1	–	> 100 µM (inactive)	> 100 µM (inactive)	> 100 µM (inactive)	> 100 µM (inactive)	> 100 µM (inactive)	> 100 µM (inactive)	–	> 100 µM (inactive)
C=C1C[C@]23CCC4C(C)(C)C(=O)CC[C@]4(C)C2C[C@H]1C(O)C3=O (stereo partly drawn)	> 75 µM (inactive)	> 75 µM (inactive)	> 75 µM (inactive)	> 75 µM (inactive)	> 75 µM (inactive)	> 75 µM (inactive)	> 75 µM (inactive)	–	> 75 µM (inactive)
CN(C)CCn1c2ccccc2c2nc3cc4ccccc4cc3nc21	–	3.3 µM (inactive)	3.81 µM (inactive)	4.95 µM (inactive)	–	7.66 µM (inactive)	–	6.47 µM (inactive)	8.73 µM (inactive)
C/C(CN1C(=O)c2ccccc2C1=O)=N\NS(=O)(=O)c1ccc(F)cc1	> 100 µM (inactive)	> 100 µM (inactive)	> 100 µM (inactive)	> 100 µM (inactive)	> 100 µM (inactive)	> 100 µM (inactive)	–	> 100 µM (inactive)	–
CC(C)(C)OC1=C(OC(C)(C)C)C(O)(c2ccc(Cl)cc2)C1=O (stereo not drawn)	> 100 µM (inactive)	–	> 100 µM (inactive)	> 100 µM (inactive)	> 100 µM (inactive)	–	86.5 µM (inactive)	> 100 µM (inactive)	> 100 µM (inactive)
O=C(Nc1cc(C(F)(F)F)ccc1Cl)C(=O)C(C(=O)c1ccc2ccccc2c1)C1OC(=O)c2ccccc21 (stereo not drawn)	–	20.4 µM (inactive)	9.82 µM (inactive)	5.11 µM (inactive)	–	–	–	11.4 µM (inactive)	11.8 µM (inactive)
